target: T1, Recombinant human BACE-1 (Homo sapiens, UniProt P56817); experiment: Assay of β-secretase-inhibiting activity; assay type: biochemical; conditions: Recombinant human BACE-1 7.4 nM, substrate peptide 18 nM, pH 5.0, 30° C., 3 hours; Table 139; read-out: IC50;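 also: substrate is a peptide carrying biotin and europium cryptate, after the enzyme reaction, Streptavidin-XL665 is added and incubated 1 h at 30 °C before fluorescence reading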
T1 construct: purchased R&D Systems
T1 sequence (P56817 46-501): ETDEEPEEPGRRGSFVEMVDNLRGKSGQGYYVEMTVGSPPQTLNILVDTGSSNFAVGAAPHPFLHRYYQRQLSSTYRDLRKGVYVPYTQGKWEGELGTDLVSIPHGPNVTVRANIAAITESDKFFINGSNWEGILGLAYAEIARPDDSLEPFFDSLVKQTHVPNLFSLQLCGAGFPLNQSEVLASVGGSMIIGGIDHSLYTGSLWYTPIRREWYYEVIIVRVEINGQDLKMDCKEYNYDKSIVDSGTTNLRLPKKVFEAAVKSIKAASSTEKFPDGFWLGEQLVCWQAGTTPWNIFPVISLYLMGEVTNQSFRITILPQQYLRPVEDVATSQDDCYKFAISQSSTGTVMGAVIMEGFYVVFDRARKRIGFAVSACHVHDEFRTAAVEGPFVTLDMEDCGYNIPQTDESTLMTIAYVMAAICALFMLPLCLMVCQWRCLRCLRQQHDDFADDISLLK

IC50 [nM]	SMILES
170	COCCOc1cnc(C(=O)Nc2cccc(C3(C)CCSC(N)=N3)c2)cn1 (stereo not shown) [Compound 62]
150	C=Cc1cnc(C(=O)Nc2cccc([C@]3(C)CCSC(N)=N3)c2)cn1 [Compound 66]
90	COCCOc1cnc(C(=O)Nc2cccc([C@]3(C)CCSC(N)=N3)c2)cn1 [Compound 70]
160	CCCCOc1cnc(C(=O)Nc2cccc(C3(C)CCSC(N)=N3)c2)cn1 (stereo not shown) [Compound 71]
110	CCCOc1cnc(C(=O)Nc2cccc([C@]3(C)CCSC(N)=N3)c2)cn1 [Compound 72]
180	CSCCOc1cnc(C(=O)Nc2cccc([C@]3(C)CCSC(N)=N3)c2)cn1 [Compound 76]
70	CCSc1cnc(C(=O)Nc2cccc([C@]3(C)CCSC(N)=N3)c2)cn1 [Compound 80]
190	C=CCCOc1cnc(C(=O)Nc2cccc([C@]3(C)CCSC(N)=N3)c2)cn1 [Compound 86]
90	CC(C)COc1cnc(C(=O)Nc2cccc([C@]3(C)CCSC(N)=N3)c2)cn1 [Compound 87]
80	C[C@@]1(c2cccc(NC(=O)c3cnc(OCC(F)F)cn3)c2)CCSC(N)=N1 [Compound 92]
170	C[C@@]1(c2cccc(NC(=O)c3cnc(OCC4CCO4)cn3)c2)CCSC(N)=N1 (stereo partly shown) [Compound 94]
130	C#CCCOc1cnc(C(=O)Nc2cccc([C@]3(C)CCSC(N)=N3)c2)cn1 [Compound 105]
120	CC#CCCOc1cnc(C(=O)Nc2cccc([C@]3(C)CCSC(N)=N3)c2)cn1 [Compound 106]
100	C=C(C)COc1cnc(C(=O)Nc2cccc([C@]3(C)CCSC(N)=N3)c2)cn1 [Compound 109]

More lines, now with the values behind:

SMILES	IC50 [nM]
Cc1cc(C(=O)Nc2cccc([C@]3(C)CCSC(N)=N3)c2)c(C)o1 [Compound 3]	80
Cc1cc(C(=O)Nc2cccc([C@]3(C)CCSC(N)=N3)c2)c(C)s1 [Compound 11]	170
Cc1nc(C)c(C(=O)Nc2ccc(F)c([C@]3(C)CCSC(N)=N3)c2)s1 [Compound 12]	160
C/C=C/COc1ccc(C(=O)Nc2cccc([C@]3(C)CCSC(N)=N3)c2)nc1 [Compound 34]	100
CSc1ccc(C(=O)Nc2ccc(F)c([C@]3(C)CCSC(N)=N3)c2)s1 [Compound 38]	140
C[C@@]1(c2cc(NC(=O)c3ccc(Br)s3)ccc2F)CCSC(N)=N1 [Compound 41]	150
CC#CC(=O)Nc1cccc([C@]2(C)CCSC(N)=N2)c1 [Compound 65]	720
COCCOc1ccc(C(=O)Nc2ccc(F)c([C@]3(C)CCSC(N)=N3)c2)nc1 [Compound 93]	80
C[C@@]1(c2cccc(NC(=O)c3cnc(OCc4ccccc4)cn3)c2)CCSC(N)=N1 [Compound 101]	80
C[C@@]1(c2cccc(NC(=O)c3ccc(OCc4ccc(F)cc4)cn3)c2)CCSC(N)=N1 [Compound 111]	180
C[C@@]1(c2cc(NC(=O)c3ccc(OCCO)cn3)ccc2F)CCSC(N)=N1 [Compound 114]	160
COc1nc(Nc2ccc(F)c([C@]3(C)CCSC(N)=N3)c2)nc(OC)n1 [Compound 126]	2140

same assay, conditions: Recombinant human BACE-1 7.4 nM, substrate peptide 18 nM, pH 5.0, 30° C., 3 hours; time-resolved fluorescence ratio 665/620; read-out: IC50 values (50% inhibitory concentration against the enzymatic activity)

IC50 [nM]	SMILES
≤ 1000	COc1cnc(C(=O)Nc2cccc([C@]3(C)CCSC(N)=N3)c2)cn1 [Compound 29]
≤ 1000	C[C@@]1(c2cccc(NC(=O)c3cnc(Cl)cn3)c2)CCSC(N)=N1 [Compound 58]
≤ 1000	CCc1cnc(C(=O)Nc2cccc([C@]3(C)CCSC(N)=N3)c2)cn1 [Compound 63]
≤ 1000	CSc1cnc(C(=O)Nc2cccc([C@]3(C)CCSC(N)=N3)c2)cn1 [Compound 69]
≤ 1000	CCOCCOc1cnc(C(=O)Nc2cccc([C@]3(C)CCSC(N)=N3)c2)cn1 [Compound 81]
≤ 1000	C[C@@]1(c2cccc(NC(=O)c3cnc(OCC(F)(F)F)cn3)c2)CCSC(N)=N1 [Compound 82]
≤ 1000	C/C=C/COc1cnc(C(=O)Nc2cccc([C@]3(C)CCSC(N)=N3)c2)cn1 [Compound 83]
≤ 1000	C[C@@]1(c2cccc(NC(=O)c3cnc(OCCC(F)(F)F)cn3)c2)CCSC(N)=N1 [Compound 89]
≤ 1000	COCCOCCOc1cnc(C(=O)Nc2cccc([C@]3(C)CCSC(N)=N3)c2)cn1 [Compound 90]
≤ 1000	CC#CCOc1cnc(C(=O)Nc2cccc([C@]3(C)CCSC(N)=N3)c2)cn1 [Compound 91]
≤ 1000	C#CCOc1cnc(C(=O)Nc2cccc([C@]3(C)CCSC(N)=N3)c2)cn1 [Compound 103]
≤ 1000	CC/C=C\COc1cnc(C(=O)Nc2cccc([C@]3(C)CCSC(N)=N3)c2)cn1 [Compound 108]
≤ 1000	CC(C)=NOc1cnc(C(=O)Nc2cccc([C@]3(C)CCSC(N)=N3)c2)cn1 [Compound 113]

Continued, molecule first:

SMILES	IC50 [nM]
Cn1nc(C(F)(F)F)cc1C(=O)Nc1cccc([C@]2(C)CCSC(N)=N2)c1 [Compound 4]	≤ 1000
Cc1cc(C(=O)Nc2cccc([C@]3(C)CCSC(N)=N3)c2)[nH]n1 [Compound 5]	≤ 1000
COc1cc(C(=O)Nc2cccc([C@]3(C)CCSC(N)=N3)c2)n(C)n1 [Compound 18]	≤ 1000
Cc1cc(C(=O)Nc2ccc(F)c([C@]3(C)CCSC(N)=N3)c2)on1 [Compound 19]	≤ 1000
Cc1cc(C(=O)Nc2ccc(F)c([C@]3(C)CCSC(N)=N3)c2)no1 [Compound 20]	≤ 1000
CSc1ccc(NC(=O)c2cnc(C)cn2)cc1[C@]1(C)CCSC(N)=N1 [Compound 21]	≤ 1000
COc1cc(C(=O)Nc2ccc(F)c([C@]3(C)CCSC(N)=N3)c2)on1 [Compound 22]	≤ 1000
COc1ccc(NC(=O)c2cnc(C)cn2)cc1[C@]1(C)CCSC(N)=N1 [Compound 32]	≤ 1000
CSc1ccc(C(=O)Nc2cccc([C@]3(C)CCSC(N)=N3)c2)nc1 [Compound 33]	≤ 1000
CC#CCOc1ccc(C(=O)Nc2cccc([C@]3(C)CCSC(N)=N3)c2)nc1 [Compound 35]	≤ 1000
CCOc1nccnc1C(=O)Nc1ccc(F)c([C@]2(C)CCSC(N)=N2)c1 [Compound 43]	≤ 1000
COCCOc1nccnc1C(=O)Nc1ccc(F)c([C@]2(C)CCSC(N)=N2)c1 [Compound 45]	≤ 1000
COCCOc1cnc(C(=O)Nc2ccc(F)c([C@]3(C)CCSC(N)=N3)c2)c(N)n1 [Compound 46]	≤ 1000
C[C@@]1(c2cccc(NC(=O)c3nccnc3Cl)c2)CCSC(N)=N1 [Compound 59]	≤ 1000
C[C@@]1(c2cccc(NC(=O)C#Cc3ccccc3)c2)CCSC(N)=N1 [Compound 64]	≤ 1000
C[C@@]1(c2cccc(NC(=O)c3cnc(C(N)=O)cn3)c2)CCSC(N)=N1 [Compound 68]	≤ 1000
COCCOc1cnc(C(=O)Nc2ccc(F)c([C@]3(C)CCSC(N)=N3)c2)cn1 [Compound 75]	≤ 1000
CSc1cnc(C(=O)Nc2ccc(F)c([C@]3(C)CCSC(N)=N3)c2)cn1 [Compound 77]	≤ 1000
C[C@@]1(c2cc(NC(=O)c3cnc(Cl)cn3)ccc2F)CCSC(N)=N1 [Compound 78]	≤ 1000
C[C@@]1(c2cc(NC(=O)c3cnc(N=[N+]=[N-])cn3)ccc2F)CCSC(N)=N1 [Compound 79]	≤ 1000
C[C@@]1(c2cc(NC(=O)c3nccnc3Cl)ccc2F)CCSC(N)=N1 [Compound 84]	≤ 1000
COc1nccnc1C(=O)Nc1ccc(F)c([C@]2(C)CCSC(N)=N2)c1 [Compound 85]	≤ 1000

SMILES	IC50 [nM]
COCCOc1ccc(C(=O)Nc2cccc([C@]3(C)CCSC(N)=N3)c2)nc1 [Compound 95]	≤ 1000
COCCCOc1ccc(C(=O)Nc2cccc([C@]3(C)CCSC(N)=N3)c2)nc1 [Compound 96]	≤ 1000
C[C@@]1(c2cccc(NC(=O)c3ccc(OCCF)cn3)c2)CCSC(N)=N1 [Compound 97]	≤ 1000
CC(C)=CCOc1ccc(C(=O)Nc2cccc([C@]3(C)CCSC(N)=N3)c2)nc1 [Compound 98]	≤ 1000
CC#CCOc1cnc(C(=O)Nc2ccc(F)c([C@]3(C)CCSC(N)=N3)c2)cn1 [Compound 100]	≤ 1000
C[C@@]1(c2cccc(NC(=O)c3ccc(OCc4ccccc4)cn3)c2)CCSC(N)=N1 [Compound 102]	≤ 1000
CC#CCOc1cnc(C(=O)Nc2cccc(C3CCSC(N)=N3)c2)cn1 (stereo not shown) [Compound 107]	≤ 1000
C[C@@]1(c2cccc(NC(=O)c3ccc(O)cn3)c2)CCSC(N)=N1 [Compound 110]	≤ 1000
C[C@@]1(c2cc(NC(=O)c3ccc(OCc4ccco4)cn3)ccc2F)CCSC(N)=N1 [Compound 112]	≤ 1000
CCCCCc1cnc(C(=O)Nc2ccc(F)c([C@]3(C)CCSC(N)=N3)c2)cn1 [Compound 115]	≤ 1000
COCC#Cc1cnc(C(=O)Nc2ccc(F)c([C@]3(C)CCSC(N)=N3)c2)cn1 [Compound 116]	≤ 1000
COC/C=C\c1cnc(C(=O)Nc2ccc(F)c([C@]3(C)CCSC(N)=N3)c2)cn1 [Compound 117]	≤ 1000
COCCCc1cnc(C(=O)Nc2ccc(F)c([C@]3(C)CCSC(N)=N3)c2)cn1 [Compound 118]	≤ 1000
C[C@@]1(c2cc(NC(=O)c3ccc(O)cn3)ccc2F)CCSC(N)=N1 [Compound 119]	≤ 1000
CC#CCNc1cnc(C(=O)Nc2ccc(F)c([C@]3(C)CCSC(N)=N3)c2)cn1 [Compound 120]	≤ 1000
C[C@@]1(c2cc(NC(=O)c3cnc(OCC4CC4)cn3)ccc2F)CCSC(N)=N1 [Compound 121]	≤ 1000
CC#CCNc1cnc(C(=O)Nc2cccc([C@]3(C)CCSC(N)=N3)c2)cn1 [Compound 123]	≤ 1000
CCC/C=C/c1cnc(C(=O)Nc2ccc(F)c([C@]3(C)CCSC(N)=N3)c2)cn1 [Compound 124]	≤ 1000
CC(C)=NOc1cnc(C(=O)Nc2ccc(F)c([C@]3(C)CCSC(N)=N3)c2)cn1 [Compound 125]	≤ 1000
C[C@@]1(c2cc(NC(=O)c3cnc(OCC(F)F)cn3)ccc2F)CCSC(N)=N1 [Compound 131]	≤ 1000
C[C@@]1(c2cc(NC(=O)c3cnc(OCCF)cn3)ccc2F)CCSC(N)=N1 [Compound 132]	≤ 1000
